From patent US6261814A, “Carboxylic acid reductase, and methods of using same” (University of Iowa Research Foundation, priority 1998, dated 2001)

How the values were obtained:
[1] = target: T1, carboxylic acid reductase (aryl aldehyde oxidoreductase) (Nocardia iowensis, UniProt Q6RKB1); assay: Kinetic properties of the purified carboxylic acid reductase (standard enzyme assay); conditions: for Vmax: purified enzyme, mean of three determinations
Procedure: (§1) Enzyme assay. The standard aryl-aldehyde oxidoreductase assay solution contained 0.15 mM […], 1 mM ATP, and 5 mM sodium benzoate, 10 mM MgCl2 and 0.01 to 0.3 units of enzyme in 50 mM Tris-HCl buffer in a final volume of 0.7 ml. The reference cuvette contained all components except for benzoate. Enzyme reactions were initiated by adding enzyme, and they were monitored by recording the absorption decrease at 340 nm at 25° C. with a Shimadzu 160 spectrophotometer.
Kinetic constants were obtained by fitting experimental data with the EZ-FIT program developed by Perrella (Perrella, Anal. Biochem. 174:437-447 (1987)).
S(+)-α-Methyl-4-[2-methylpropyl]-benzeneacetic acid (ibuprofen) was from Aldrich Chemical Co. R(-) isomer of ibuprofen was a gift from Dr. Ching-Shih Chen, University of Rhode Island (Chen et al., Biochim. Biophys. Acta 1033:1-6 (1990)). […] Substrate enantiopurities were checked by specific rotation determination for each isomer (Chen and Rosazza, Appl. Environ. Microbiol. 60(4):1292-1296 (1994)).

[2] = target: T2, oxidoreductase from Neurospora crassa (Neurospora crassa, UniProt Q7RW48); conditions: Eur. J. Biochem. 8:413 (1969); cited from earlier work
T2 construct: host or cells: crude Neurospora crassa preparation (Eur. J. Biochem. 8:413 (1969))
T2 sequence (Q7RW48 1-1052): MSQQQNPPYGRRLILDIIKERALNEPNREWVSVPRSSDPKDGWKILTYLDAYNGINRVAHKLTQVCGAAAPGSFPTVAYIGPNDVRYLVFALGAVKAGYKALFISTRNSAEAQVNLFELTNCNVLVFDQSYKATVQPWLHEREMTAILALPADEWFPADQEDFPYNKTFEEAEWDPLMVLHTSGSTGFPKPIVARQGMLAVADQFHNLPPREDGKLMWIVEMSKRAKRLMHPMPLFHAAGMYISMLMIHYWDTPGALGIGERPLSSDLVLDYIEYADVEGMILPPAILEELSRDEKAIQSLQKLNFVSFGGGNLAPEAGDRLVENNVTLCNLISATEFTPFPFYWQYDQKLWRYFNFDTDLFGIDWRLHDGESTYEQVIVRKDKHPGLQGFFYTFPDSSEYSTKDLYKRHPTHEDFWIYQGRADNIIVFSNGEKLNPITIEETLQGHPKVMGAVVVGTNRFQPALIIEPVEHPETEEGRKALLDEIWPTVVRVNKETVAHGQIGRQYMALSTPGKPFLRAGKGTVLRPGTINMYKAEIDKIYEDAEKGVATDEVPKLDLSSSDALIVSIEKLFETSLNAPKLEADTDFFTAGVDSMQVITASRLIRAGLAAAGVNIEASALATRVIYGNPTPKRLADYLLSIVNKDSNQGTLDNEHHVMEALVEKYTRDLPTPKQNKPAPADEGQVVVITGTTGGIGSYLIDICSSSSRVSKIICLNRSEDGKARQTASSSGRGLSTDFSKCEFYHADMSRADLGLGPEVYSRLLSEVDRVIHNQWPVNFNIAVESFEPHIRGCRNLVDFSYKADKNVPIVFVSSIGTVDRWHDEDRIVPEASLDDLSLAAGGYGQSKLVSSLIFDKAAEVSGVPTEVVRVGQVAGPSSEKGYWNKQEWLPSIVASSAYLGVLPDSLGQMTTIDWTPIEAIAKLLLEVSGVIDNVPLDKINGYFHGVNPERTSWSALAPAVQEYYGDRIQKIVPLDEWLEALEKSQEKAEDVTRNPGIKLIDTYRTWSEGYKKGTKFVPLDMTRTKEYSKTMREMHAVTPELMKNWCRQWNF

[3] = target: T1, carboxylic acid reductase (aryl aldehyde oxidoreductase); assay: Substrate specificity of crude carboxylic acid reductase (100,000×g supernatant); type: biochemical, Nocardia sp. NRRL 5646; design: Crude enzyme preparations consisting of 100,000×g supernatants were used in this study; endogenous in cells; host or cells: Nocardia sp; NRRL 5646, crude 100,000×g supernatant
Procedure: as §1
Crude enzyme preparations consisting of 100,000×g supernatants were used in this study. […] The relative rate of reduction for each carboxylic acid derivative is expressed as the percentage of the initial rate of benzoate reduction.
The range of oxidoreductase activities of crude, 100,000×g Nocardia extract with a variety of substrates was investigated. Various substituted 2-, 3- and 4-substituted benzoates were examined, including a range of ring-activating and ring-deactivating functional groups. Benzoates substituted with halogens, methyl, methoxy, hydroxy, acetyl, nitro, benzoyl, phenyl, and phenoxyl groups as well as aryl-ring systems containing two (naphthalene) and three (fluorene) rings, and heterocyclic aromatic acids including furoic, nicotinic and indole carboxylic acids were considered. In addition, one cinnamic acid derivative, phenyl-acetate, phenyl-malonate, phenyl-succinate and 2-phenylpropionic acid were studied.

Nocardia sp. NRRL 5646 = assay: Induction of the enzyme by benzoate in stage two cultures; type: cell-based; conditions: NRRL5646, 24 h, read-out: induction of specific activity of aryl aldehyde oxidoreductase in crude extracts
Procedure: Shaken flask cultures were grown by a standard two stage incubation protocol (Betts et al., J. Med. Chem. 17:599-602 (1974)) in 200 ml of sterile medium held in stainless steel-capped 1-liter DeLong culture flasks. The medium, containing (wt/vol) 2% glucose, 0.5% yeast extract, 0.5% soybean flour, 0.5% NaCl, and 0.5% K2 HPO4 in distilled water, was adjusted to pH 7.2 with 6 N HCl, and then autoclaved at 121° C. for 20 min. Cultures were incubated by shaking at 250 rpm at 28° C. on New Brunswick Scientific, C25 Gyrotory shakers. A 10% inoculum derived from a 72-hour first-stage culture was used to initiate the second-stage culture, which was incubated as before. […] The culture was harvested 24 hours after the addition of benzoate, the cells were collected from the medium by centrifugation at 8,000×g for 20 min., and washed twice with 0.9% NaCl. Cell pellets were stored at -38° C. until needed. Typical wet cell yields by this cultivation process were approximately 25 g/liter.
As a result, it was determined that the specific activity of aryl aldehyde oxidoreductase in crude extracts of Nocardia sp. NRRL 5646 could be induced up to 10 fold by the addition of up to 5 mg/ml benzoate to the 24 hour, stage two cultures.

T1 sequence (Q6RKB1 whole entry): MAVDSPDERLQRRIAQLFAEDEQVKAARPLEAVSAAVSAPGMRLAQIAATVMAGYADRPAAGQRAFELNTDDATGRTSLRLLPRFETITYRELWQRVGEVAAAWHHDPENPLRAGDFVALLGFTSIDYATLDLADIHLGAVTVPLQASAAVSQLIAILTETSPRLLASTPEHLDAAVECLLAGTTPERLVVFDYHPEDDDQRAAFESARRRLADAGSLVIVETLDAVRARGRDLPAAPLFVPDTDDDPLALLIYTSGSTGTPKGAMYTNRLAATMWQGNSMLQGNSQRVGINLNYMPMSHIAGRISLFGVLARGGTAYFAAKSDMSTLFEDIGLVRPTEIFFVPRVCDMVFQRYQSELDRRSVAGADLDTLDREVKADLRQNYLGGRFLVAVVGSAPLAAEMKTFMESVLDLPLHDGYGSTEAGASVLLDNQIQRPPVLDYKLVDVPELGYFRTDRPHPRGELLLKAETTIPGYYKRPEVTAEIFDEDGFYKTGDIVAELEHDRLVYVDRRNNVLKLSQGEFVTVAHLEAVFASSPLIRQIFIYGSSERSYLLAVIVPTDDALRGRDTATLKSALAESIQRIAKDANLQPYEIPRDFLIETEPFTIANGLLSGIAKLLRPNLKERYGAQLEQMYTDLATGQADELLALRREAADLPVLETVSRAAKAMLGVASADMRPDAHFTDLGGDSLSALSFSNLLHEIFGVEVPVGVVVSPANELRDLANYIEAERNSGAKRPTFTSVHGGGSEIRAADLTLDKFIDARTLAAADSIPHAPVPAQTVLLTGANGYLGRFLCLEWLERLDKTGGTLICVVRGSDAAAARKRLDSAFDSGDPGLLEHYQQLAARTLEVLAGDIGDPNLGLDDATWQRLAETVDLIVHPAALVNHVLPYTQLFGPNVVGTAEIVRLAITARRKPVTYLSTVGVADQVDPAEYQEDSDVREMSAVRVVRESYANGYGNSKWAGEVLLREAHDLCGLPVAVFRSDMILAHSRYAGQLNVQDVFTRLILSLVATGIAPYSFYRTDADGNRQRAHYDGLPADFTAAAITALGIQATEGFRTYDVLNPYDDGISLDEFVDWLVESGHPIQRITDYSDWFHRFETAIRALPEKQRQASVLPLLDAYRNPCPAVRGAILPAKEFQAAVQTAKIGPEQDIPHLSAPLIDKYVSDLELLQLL

O=C(O)c1ccccc1 [benzoic acid]
inhibition of the enzyme by benzoate ([1]; benzoate concentration up to 2 mM): no inhibition was observed
apparent Km relative to Km reported for the enzyme from Nocardia asteroides ([1]; higher than values reported by Kato et al.): more than 1000 fold
turnover number ([1]; pseudo-first order reaction conditions): 126 min⁻¹
Vmax [1]: 0.902 ± 0.04 μmol/min/mg of protein
Vmax ([1]; listed as benzoate): 0.902±0.04 μmol/min/mg of protein
Km [2]: 63 µM
benzoate concentration at which activity is inhibited [2]: 300 µM
Relative Activity ([3]; 5 mM substrate, 0.15 mM NADPH, 1 mM ATP, 50 mM Tris-HCl pH 7.5, percentage of the initial rate of benzoate reduction): 100 percentage
quality as substrate of the enzyme (in words) ([3]; substrates of Table 2): best substrates
rate of benzoate reduction ([3]; typical, crude enzyme, 5 mM): 0.066 ΔA340 /min
rate of benzoate reduction (equivalent) ([3]; typical, crude enzyme, 5 mM): 10.6 µM/min
fold induction at 5000 µg/mL (Nocardia sp. NRRL 5646): ≤ 10
